Data as given in patent US20080226718A1, “Indole and Azaindole Derivatives For the Treatment of Inflammatory and Autoimmune Diseases” (Brane Discovery S.r.l, priority 2005, published 2008).

Assays:
[1] = test system: PMNs; experiment: Chemokine-induced rapid adhesion of PMNs to fibrinogen (fMLP); format: cell-based; details: Homo sapiens, 2 min, fMLP 100 nM; for inhibition at 10 µM: [cpd] 10 μM; for inhibition at 25 µM: [cpd] 25 μM; for inhibition at 50 µM: [cpd] 50 μM
Description: (§1) Adhesion was performed on purified integrin ligands and was evaluated as reported in Constantin G. et al., Immunity, 16, 759-769, 2000. Briefly, primary naïve lymphocytes, polymorphonuclear neutrophils (PMNs) or monocytes were isolated form healthy donors. In other experiments, murine autoreactive T cells were obtained from SJL mice immunized with PLP139-151 as described (Piccio L. et al., J. Immunol, 168, 1940-1949, 2002). Cells were resuspended at 4×10^6/ml in PBS, CaCl2, MgCl2 1 mM, 10% FCS, pH 7.2. Adhesion assays were performed on eighteen well glass slides coated overnight at 4° C. with ligands for CR3 (fibrinogen) or LFA-1 (ICAM-1). 20 μl of cell suspension were added to the wells and stimulated at 37° C. with 5 μl of agonists prior to washing, fixation and computer-assisted enumeration of bound cells.
(§2) Integrin activation was measured as induction of rapid adhesion triggered by the classical chemoattractant N-formyl-L-methionyl-L-leucyl-phenylalanine (fMLP) (100 nM) or by the CC chemokine MIP3β (CCL19, 1 μM). PMNs and monocytes were triggered to adhere to fibrinogen (CR3 ligand); naive human lymphocytes or murine encephalitogenic T cells were triggered to adhere to ICAM-1 (LFA-1 ligand). Triggered adhesion was evaluated after 2 min of stimulation under static conditions. The cells were pretreated at 37° C. for 30-60 min with the indicated concentrations of the test compound. Results are expressed as percentage of inhibition over control (=100%) and are the mean of three experiments in the case of human leukocytes. Results are expressed as mean counts and are the mean counts ±S.D of three experiments and are the mean of three experiments in the case of murine encephalitogenic lymphocytes.
(§3) Integrin activation was measured as induction of rapid adhesion triggered by the “classical” chemoattractant fMLP (100 nM) or by the CC chemokine MIP3β (CCL19, 1 μM). PMNs were triggered to adhere to fibrinogen (CR3 ligand); lymphocytes were triggered to adhere to ICAM-1 (LFA-1 ligand).

[2] = test system: encephalitogenic lymphocytes; experiment: Chemokine-induced adhesion of murine encephalitogenic T cells to ICAM-1; format: cell-based, SJL mice; details: ICAM-1; for Chemokine-induced Adhesion in encephalitogenic lymphocytes, Mean counts ± S.D., in presence of MIP3-β stimulation: 1 μM CCL19 (MIP-3beta)
Description: as §1, §2
Chemokines trigger rapid arrest of lymphocytes in blood vessels through pertussis toxin-sensitive G protein coupled receptors. Rapid adhesion to purified ICAM-1 was measured in in vitro adhesion assays using control/untreated cells and lymphocytes treated with concentration between 5-50 μM for 1 h. Autoreactive lymphocytes were then stimulated with 1 μM CCL19 (MIP-3beta) for 3 min. […] These compounds were already efficient in blocking adhesion using a concentration of 5 μM for the cell treatment.

[3] = test system: lymphocytes; experiment: Chemokine-induced rapid adhesion of lymphocytes to ICAM-1 (MIP3β); format: cell-based; details: Homo sapiens, Lymphocyte, MIP3β 1 μM; for inhibition at 10 µM: [cpd] 10 μM, read-out: Inhibition of Adhesion (%) Lymphocytes (MIP3-β); for inhibition at 25 µM: [cpd] 25 μM; for inhibition at 25 µM / inhibition at 50 µM: read-out: Inhibition of Adhesion (%) Lymphocytes (MIP3-β) (converted); for inhibition at 50 µM: [cpd] 50 μM
Description: as §1, §2, §3

[4] = test system: monocytes; experiment: Chemokine-induced rapid adhesion of monocytes to fibrinogen (fMLP); format: cell-based; details: Homo sapiens, Monocyte, fMLP 100 nM; for inhibition at 10 µM: [cpd] 10 μM; for inhibition at 25 µM: [cpd] 25 μM; for inhibition at 50 µM: [cpd] 50 μM
Description: as §1, §2

[5] = test system: PMNs; experiment: Chemotaxis assay, PMNs (fMLP); format: cell-based; details: Homo sapiens, fMLP 10 nM, 2 h; for inhibition at 10 µM: [cpd] 10 μM; for inhibition at 25 µM: [cpd] 25 μM; for inhibition at 50 µM: [cpd] 50 μM
Description: (§4) PMNs and monocytes migration was assessed using 1 or 3-μm pore size transwells (Bio-Coat Becton-Dickinson), while lymphocytes by using 5-elm pore size transwells.
(§5) Cells were in RPMI1640, containing 10% heat-inactivated Fetal Calf Serum (FCS) and 20 mM HEPES, pH 7.3, at 2×10^6/ml. 100 μl of cell suspension were added to the top well, and 600 μl of medium, containing chemoattractants and test compound, were added to the bottom well. Migration was evaluated after 2 h for PMNs and monocytes and after 4 h for lymphocytes. fMLP 10 nM (PMNs and monocytes) and MIP-3β 100 nM (lymphocytes) were utilized as chemoattractants. After fixation with 1.5% glutaraldehyde, migrated cells were counted by fluorescence-activated celli sorting using polystyrene beads (Polyscience) as an internal standard (Campbell J. J. et al. J. Cell. Biol. 134, 255-266, 1996; Laudanna C. et al. J. Biol. Chem. 273,46, 30306-30315, 1998).
(§6) Results are expressed as percentage of inhibition over control (=100%), and are the mean of three experiments.

[6] = test system: lymphocytes; experiment: Chemotaxis assay, lymphocytes (MIP-3β); format: cell-based; details: Homo sapiens, Lymphocyte, MIP-3β 100 nM, 4 h; for inhibition at 10 µM: [cpd] 10 μM, read-out: Inhibition of Chemotaxis (%) Lymphocytes (MIP3-β); for inhibition at 25 µM: [cpd] 25 μM; for inhibition at 25 µM / inhibition at 50 µM: read-out: Inhibition of Chemotaxis (%) Lymphocytes (MIP3-β) (converted); for inhibition at 50 µM: [cpd] 50 μM
Description: as §4, §5, §6

[7] = test system: monocytes; experiment: Chemotaxis assay, monocytes (fMLP); format: cell-based; details: Homo sapiens, Monocyte, fMLP 10 nM, 2 h; for inhibition at 10 µM: [cpd] 10 μM; for inhibition at 25 µM: [cpd] 25 μM; for inhibition at 50 µM: [cpd] 50 μM
Description: as §4, §5, §6

[8] = test system: encephalitogenic lymphocytes; experiment: Spontaneous adhesion of encephalitogenic T cells on purified ICAM-1; format: cell-based, SJL mice; details: Mus musculus, Lymphocyte, 1 h; for inhibition at 5 µM: [cpd] 5 μM, read-out: Inhibition of Spontaneous Adhesion in encephalitogenic lymphocytes (% of control/non-treated cells) ICAM-1; for inhibition at 10 µM: [cpd] 10 μM; for inhibition at 10 µM / inhibition at 50 µM: read-out: Inhibition of Spontaneous Adhesion in encephalitogenic lymphocytes (% of control/non-treated cells) ICAM-1 (converted); for inhibition at 50 µM: [cpd] 50 μM
Description: Spontaneous adhesion of encephalitogenic lymphocytes was measured in adhesion assays on purified ICAM-1 and VCAM-1 as previously described (Constantin G. et al., J. Immunol. 162, 1144-1149, 1999). Autoreactive T cells were obtained from SJL mice immunized with PLP139-151 as described (Piccio L. et al., J. Immunol. 168, 1940-1949, 2002). Lymphocytes were treated with test compound at concentrations between 5-100 μM for 1 h, while control/untreated cells were treated with vehicle (DMSO). Results are expressed as percentage of inhibition over control (=100%) ±S.D and are the mean of three-four experiments.
ICAM-1 and VCAM-1 are adhesion molecules from the family of immunoglobulins and control the migration of lymphocytes through the endothelium during inflammatory responses. Encephalitogenic T cells are activated lymphocytes displaying spontaneous adhesion on ICAM-1 and VCAM-1 and have increased migration capacities in inflammation sites. Spontaneous adhesion of encephalitogenic lymphocytes was measured in adhesion assays on purified ICAM-1 and VCAM-1 as described in the method.

| Compound | inhibition at 10 µM [1] | inhibition at 25 µM [1] | inhibition at 50 µM [1] | inhibition at 10 µM [3] | inhibition at 25 µM [3] | inhibition at 50 µM [3] | inhibition at 10 µM [4] | inhibition at 25 µM [4] | inhibition at 50 µM [4] | inhibition at 10 µM [5] | inhibition at 25 µM [5] | inhibition at 50 µM [5] | inhibition at 10 µM [6] | inhibition at 25 µM [6] | inhibition at 50 µM [6] | inhibition at 10 µM [7] | inhibition at 25 µM [7] | inhibition at 50 µM [7] | inhibition at 5 µM [8] | inhibition at 10 µM [8] | further results |
| --- | --- | --- | --- | --- | --- | --- | --- | --- | --- | --- | --- | --- | --- | --- | --- | --- | --- | --- | --- | --- | --- |
| COc1ccc(-c2c3n(c4cc(OC)c(OC)cc24)CCOC3)cc1 [Example 76] | – | – | – | – | – | – | – | – | – | – | – | – | – | – | – | – | – | – | – | – | inhibition at 100 µM ([1]; [cpd] 100 μM): 66%; Chemokine-induced Adhesion in encephalitogenic lymphocytes, Mean counts ± S.D., in presence of MIP3-β stimulation ([2]; [cpd] 1 μM): 102.9 ± 2.9; Adhesion in encephalitogenic lymphocytes, Mean counts ± S.D., in absence of MIP3-β stimulation ([2]; [cpd] 1 μM): 36.9 ± 4.0; Chemokine-induced Adhesion in encephalitogenic lymphocytes, Mean counts ± S.D., in presence of MIP3-β stimulation ([2]; [cpd] 5 μM): 87.7 ± 12.0; Adhesion in encephalitogenic lymphocytes, Mean counts ± S.D., in absence of MIP3-β stimulation ([2]; [cpd] 5 μM): 28.3 ± 8.9; Chemokine-induced Adhesion in encephalitogenic lymphocytes, Mean counts ± S.D., in presence of MIP3-β stimulation ([2]; [cpd] 50 μM): 66.6 ± 1.8; Adhesion in encephalitogenic lymphocytes, Mean counts ± S.D., in absence of MIP3-β stimulation ([2]; [cpd] 50 μM): 23.0 ± 1.9 |
| COc1cc2[nH]c(C(=O)N3CCOCC3)c(-c3ccccc3)c2cc1OC [Example 47] | 16.6% | 37.1% | 45.4% | 43.8% | 52.5% | 77.5% | 8.7% | 14.4% | 22.4% | 75.4% | 87.5% | 96.1% | 44.3% | 66.6% | 88.2% | 56.5% | 82.4% | 93.9% | 7.1% | 17.2% | inhibition at 50 µM [8]: 93.4% |
| CNC(=O)c1[nH]c2cc(OC)c(OC)cc2c1-c1ccccc1 [Example 48] | 18% | 48.9% | 53.7% | 53.7% | 77.3% | 91.5% | 7.5% | 22.5% | 31.7% | 82.4% | 87.8% | 96.4% | 48.9% | 77.3% | 94.9% | 71.7% | 90.4% | 96.5% | 37.5% | 65.6% | inhibition at 50 µM [8]: 95.6% |
| COc1ccc(-c2c(C(N)=O)[nH]c3cc(OC)c(OC)cc23)cc1 [Example 14] | – | – | – | – | – | – | – | – | – | – | – | – | – | – | – | – | – | – | – | – | Chemokine-induced Adhesion in encephalitogenic lymphocytes, Mean counts ± S.D., in presence of MIP3-β stimulation ([2]; [cpd] 1 μM): 120.3 ± 9.8; Adhesion in encephalitogenic lymphocytes, Mean counts ± S.D., in absence of MIP3-β stimulation ([2]; [cpd] 1 μM): 67.6 ± 2.0; Chemokine-induced Adhesion in encephalitogenic lymphocytes, Mean counts ± S.D., in presence of MIP3-β stimulation ([2]; [cpd] 5 μM): 101.2 ± 6.1; Adhesion in encephalitogenic lymphocytes, Mean counts ± S.D., in absence of MIP3-β stimulation ([2]; [cpd] 5 μM): 41.8 ± 4.2; Chemokine-induced Adhesion in encephalitogenic lymphocytes, Mean counts ± S.D., in presence of MIP3-β stimulation ([2]; [cpd] 50 μM): 56.8 ± 2.2; Adhesion in encephalitogenic lymphocytes, Mean counts ± S.D., in absence of MIP3-β stimulation ([2]; [cpd] 50 μM): 20.9 ± 11.7 |
| COc1ccc(-c2c(C#N)n(CCN(C)C)c3cc(OC)c(OC)cc23)cc1 [Example 18] | 2.2% | 10.4% | 26.7% | 66.3% | 91.4% | 95.1% | 7.8% | 14.7% | 31.2% | 52.3% | 77.6% | 91.2% | 51% | 86.7% | 92.3% | 17.3% | 62.1% | 84.5% | 28.7% | 36.8% | inhibition at 50 µM [8]: 96.9% |
| COc1ccc(-c2c(-c3nnc(C)o3)[nH]c3cc(OC)c(OC)cc23)cc1 [Example 77] | 17.4% | 24.7% | 30.5% | 15.9% | 20.7% | 30.5% | 3.5% | 33.4% | 50.8% | 51.3% | 49.4% | 59.5% | 13.6% | 25.4% | 33.8% | 40.6% | 48.9% | 59% | 25.9% | 34.8% | inhibition at 50 µM [8]: 95.9% |
| COc1cc2[nH]c(C(=O)N(C)C)c(-c3ccccc3)c2cc1OC [Example 46] | 16.7% | 28.7% | 38.4% | 34.1% | 58.8% | 67.1% | 12.6% | 32.2% | 37.6% | 65.3% | 74.5% | 93.1% | 19.9% | 45% | 85% | 48.2% | 63.8% | 89.9% | 15.8% | 25.9% | inhibition at 50 µM [8]: 96.3% |
